In patent publication US20020165136A1, “MHC peptides and methods of use” (Thomas Jefferson University, priority 1996, published 2002):
“Also recorded” adds a separate entry of the source.

Tests used:
C6 glioblastoma cells = format: in vivo, rat; design: dose or concentration left out as unconfirmed; details: C6 cells pre-treated 24 hours in serum-free medium
C6 cells [1] = experiment: In vivo apoptosis assay: peptide-pretreated C6 cells in a diffusion chamber implanted s.c. in rats; design: species or system rat; details: for Percent Recovery: 24 hours in diffusion chamber
Protocol: (§1) The test for apoptosis in vivo was based on the use of the diffusion chamber described in detail by Resnicoff, M., et al., Cancer Res. 55: 2463-2469 (1995). According to this method, the cells are placed in a diffusion chamber that allows the passage of nutrients, antigens, antibodies, etc., but not of intact cells. The sterilized chamber is loaded with cells and then inserted into the subcutaneous tissue of rats or mice; after 24 hours, (or at other times, depending on the experiment) the chamber is removed and the number of cells in the chamber is determined with a hemocytometer, and expressed as a percentage of the original inoculum. The cells are also stained with trypan blue for viability; in the experience of the inventors, surviving cells are >95% viable.
(§2) For in vivo effects, 5×10^5 cells (C6 and CaOV-3 were both used for these studies) were placed in diffusion chambers and implanted into the s.c. tissue of the animals. Once the skin was sutured, the peptides were injected s.c. next to the chambers at the indicated concentrations in a final volume of 0.2 ml. Twenty-four hours later, the chambers were removed from the animals and the cells were quantitatively recovered.
(from gp100), involved in regression of human melanoma (Kawakami et al. 1994); 2) […], recognized by melanoma-specific human CTL lines (Cox et al, 1994); and 3) […], derived from connexin 37, that induces CTL responses against murine lung carcinoma (Mandelboim, et al., 1994). For each of these peptides, a control peptide having the same amino acid composition, but in scrambled order (controls), was also tested. C6 cells were preincubated with the peptides at a concentration of 10^−5M and transferred to the diffusion chamber (see Methods and Materials). Cell number was determined after 24 hours in the diffusion chamber transplanted into the subcutaneous tissue of rats.
Two of the three peptides were selected for further studies of the effects of mutations on the ability to induce apoptosis. Several point mutations were introduced into the peptide […]. […] Mutations at tyrosine in position 1, or the two prolines in positions 4 and 6, effectively inactivated peptide no. 2. An exception to this observation was seen when the prolines were replaced by an N-methyl amino acid. Mutations at E3 or T8 had little effect, but when both residues were mutated, recovery increased to 77%.
In order to determine the minimum concentration of these peptides that still would induce apoptosis in vivo, C6 cells were preincubated with different concentrations of the […] and D-amino acid […] peptides and recovery of viable cells was determined after 24 hours in the diffusion chamber.

C6 cells [2] = experiment: Protection from subsequent challenge with wild type C6 cells; format: in vivo, rat
Protocol: Synthetic peptide sequences listed above were tested at 5×10^−M on C6 cells. Tests for apoptosis and for protection from subsequent challenge with C6 cells are described herein. Point mutations are shown in bold characters.

[3] = system: CaOV3 cells (human ovarian carcinoma cells); experiment: Diffusion chamber assay, CaOV3 cells in mice, peptide injected s.c. next to chamber; format: in vivo, mouse; details: Balb/c mice, 0.2 ml of 0.05 mM peptide s.c. next to chamber, 24 hours
Protocol: as §1, §2
Human ovarian carcinoma cells CaOV3 (Resnicoff, et al. (1993)) were loaded into a diffusion chamber, and the chamber was inserted into the subcutaneous tissue of mice. The animals were then injected, also subcutaneously next to the chamber, with 0.2 ml of a 0.05 mM solution of four different peptides, and the number of cells was determined 24 hours later. […] The control peptide had no effect, and the number of cells more than doubled. CaOV3 cells also undergo apoptosis, as determined by FACS analysis.
CaOV3 cells (human ovarian carcinoma cells, 5×10^5 cells) were placed without any previous treatment into diffusion chambers that were then implanted into the subcutaneous tissue of Balb/c mice. Animals were then injected subcutaneously next to the chambers either with 0.2 ml of a 0.05 mM solution of one of the three test peptides or with 0.2 ml of a 0.05 mM solution of the control peptide.

C6 cells [4] = experiment: Tumorigenesis of C6 cells in nude mice; format: in vivo; details: for Expected Delay: calculated from % cells recovered; for Palpable Tumors: s.c. in nude mice
Protocol: C6 cells pre-incubated with various concentrations (10^−12, 10^−10, 10^−8, and 10^−5 M) of the peptide YLRPGPVTA were injected simultaneously into nude mice and the time of appearance of subcutaneous tumors was determined. In parallel experiments, the percentage of cells killed in the diffusion chamber assay was determined. From the percentage of cells killed, the expected delay in the appearance of tumors in mice was calculated as described previously (Resnicoff, et al., Cancer Res. 55:3739 (1995)). […] The time of appearance of tumors is slightly more delayed than expected from the percentage of cells killed in 24 hours in the diffusion chamber assay, a phenomenon previously observed also with antisense oligodeoxynucleotides to the IGF-IR RNA (Resnicoff, et al., Cancer Res. 55:3739 (1995)).
A similar inhibition of tumorigenesis was observed using the D-amino acid peptide LRLTATGDLL. In this case, the peptide (all D-aa, sequence from Kawakami, et al. (1994)) was injected s.c. into nude mice (0.1 ml, at the indicated concentrations), simultaneously with C6 cells (10^5 cells in 0.1 ml) and next to them. The animals were followed for tumor development. The results were as follows: For C6 cells without peptide injection, the tumors appeared after 4 days; for a peptide injection at 10^−10 to 10^−12 M, tumors appeared after 11 days.
C6 cells were incubated with the synthetic peptide at the indicated final concentrations for 24 hours in serum-free medium before injection into the subcutaneous tissue of seven week-old male Dalb/c nude mice. Percentage recovery was determined using the diffusion chamber assay as described herein. Expected Delay is the number of days after injection before the tumors should become palpable, based on survival in vivo estimated by percentage of cells recovered. […] Three nude mice were used in each experimental condition.

C6/p35 cells = experiment: Diffusion chamber apoptosis test on C6 cells expressing baculovirus p35; format: in vivo, rat; details: untreated versus incubated with peptide
Protocol: In addition, one of the common pathways of apoptotic injury is through the ICE proteins ([…] (1996)). The activation of ICE and ICE-like proteins is inhibited by the p35 protein of baculovirus (Clem and Miller (1994)), which can also be functional in mammalian cells (Rabizadeh, et al. (1993). To determine whether the synthetic peptides caused apoptosis through the ICE pathway, a plasmid expressing the p35 protein was stably introduced into C6 cells. C6 and C6/p35 cells were then tested for apoptosis in the diffusion chambers, using the synthetic peptide […]. 2 is a composite picture showing the expression of p35 in the various cell lines, and, below each lane, the percentage of cells recovered from the diffusion chamber.

GILGFVPTL [Peptide M158-66, synthetic peptide corresponding to one derived from influenza virus]
Recovery (%) (C6 glioblastoma cells): 23.4%

YLRPGPVTA [point mutant of …]
% Recovery (C6 cells [1]; C6 cells incubated with 10^−5 M peptide 24 hours in serum-free medium, diffusion chamber): 0.3%
% Recovery (C6 cells [1]; C6 cells incubated with 10^−8 M peptide 24 hours in serum-free medium, diffusion chamber): 2.1%
% Recovery (C6 cells [1]; C6 cells incubated with 10^−10 M peptide 24 hours in serum-free medium, diffusion chamber): 4.5%
% Recovery (C6 cells [1]; C6 cells incubated with 10^−12 M peptide 24 hours in serum-free medium, diffusion chamber): 18%
Percent Recovery (C6 cells [1]; C6 cells, peptide 10^−5 M): 0.3%
Percent Recovery (C6 cells [1]; C6 cells, peptide 10^−8 M): 2.1%
Percent Recovery (C6 cells [1]; C6 cells, peptide 10^−10 M): 4.5%
Percent Recovery (C6 cells [1]; C6 cells, peptide 10^−12 M): 18%
% Recovery (24 hs) (C6 cells [1]; C6 cells, peptide at 5×10^−M, 24 hs in diffusion chamber, % of original inoculum): 3.5%
apoptosis in C6 cells and C6 cells stably transfected with the empty vector (C6 cells [1]; diffusion chamber, treated with peptide): underwent apoptosis
Protection from wild type cell challenge (C6 cells [2]): yes
Percent Recovery [3]: 3.0%
Expected Delay (C6 cells [4]; 10^−5 M peptide): 14 days
Expected Delay (C6 cells [4]; 10^−8 M peptide): 11 days
Expected Delay (C6 cells [4]; 10^−10 M peptide): 10 days
Expected Delay (C6 cells [4]; 10^−12 M peptide, days before tumors should become palpable): 8 days
Palpable Tumors (C6 cells [4]; C6 cells pre-incubated with 10^−5 M peptide): 21 days
Palpable Tumors (C6 cells [4]; C6 cells pre-incubated with 10^−8 M peptide): 15 days
Palpable Tumors (C6 cells [4]; C6 cells pre-incubated with 10^−10 M peptide): 14 days
Palpable Tumors (C6 cells [4]; C6 cells pre-incubated with 10^−12 M peptide, days after injection): 11 days
inhibition of tumorigenesis (in words) (C6 cells [4]; C6 cells pre-treated with peptide at 10^−12 to 10^−5 M, nude mice): concentration-dependent inhibition of tumorigenesis
growth of clones expressing the p35 protein in the diffusion chamber (C6/p35 cells): grew in the diffusion chamber equally well whether untreated or incubated with the synthetic peptide; also recorded: grew in the diffusion chamber equally well, whether untreated or incubated with the synthetic peptide
